System: intradermal capsaicin model
Experiment: Phase I crossover study, intradermal capsaicin model: pharmacodynamics
Format: in vivo, human
Details: for Pain Score of Brush-evoked Allodynia Using an NRS, Adjusted Mean (MMRM) / Subjective Rating of Pain, Adjusted Mean (MMRM): overall, all timepoints, N=24; for Pain Score of Brush-evoked Allodynia Using an NRS, Adjusted Mean (MMRM): placebo 2.0; for Subjective Rating of Pain, Adjusted Mean (MMRM): placebo 17.1
Excerpt: Participants. The volunteers were males aged 18 to 55 years with a body mass index (BMI) of 18 to 30 kg/m2. They were healthy as determined by a responsible physician, based on a medical evaluation including medical history, physical examination, concomitant medication, vital signs, 12-lead ECG, and clinical laboratory evaluations. The participants must have been in good general health with a skin type compatible with the measures and without significant skin allergies, pigmentary disorders or any active dermatological conditions. […] The participants provided written informed consent, which included compliance with the requirements and restrictions listed in the consent form, including the use of a condom during the trial and for 3 months after their final dose of trial medication, if their partner was a woman of childbearing potential.
Clinical and laboratory data. Prior to and 15, 30, 60, 90 and 120 minutes after administration of capsaicin, measurements of pain, hyperalgesia, allodynia and AF were performed. At 2 hours post-capsaicin injection, subjects completed a quantitative sensory testing (QST) battery at two sites on the volar surface of each forearm. One site was the most recent capsaicin injection site, and the other was at an equivalent point on the opposite forearm. […] There was a minimum washout period of 5 days between treatment periods.
Reconstitution was performed by a Pharmacist at the clinical site prior to dosing.
In order to maintain the blind, a double dummy approach was used.
Subjects were randomised to receive a single administration of a treatment combination during each treatment period. All subjects received each treatment combination once only.
Evaluation methods: Pharmacodynamics was assessed through pain measurements (response to ID injection of capsaicin, measurement of pain using a visual analogue scale, area and pain score of hyperalgesia, area and pain score of allodynia, and AF) and the ID capsaicin model. Subjects also completed a QST battery at two sites on the volar surface of either forearm. The QST battery included the following tests: thermal detection and pain thresholds, mechanical detection and pain thresholds, stimulus/response functions, wind-up ratio and pressure pain threshold.
For measurement of pain, a visual analogue scale (VAS) was used. The VAS consisted of a 100 mm line, with 0 representing "no pain" and 100 representing "worst pain imaginable". Subjects were asked to mark the VAS using a single vertical stroke at the point they considered to appropriately reflect their level of pain from the injection of capsaicin (not general pain). A new VAS was provided for each time point and subjects were not allowed to see their previous VAS responses. The VAS was scored by measuring from the left-hand end of the scale to the point where the subject had marked the line, and the distance in mm was recorded.
Response to pain was also assessed by a numeric rating scale (NRS). For example, by using an 11-point numeric rating scale ranging from 0 ("no pain") to 10 ("worst possible pain") and asking the subject to rate their pain. A NRS scale of 0 to 100 was also used in some assesments.
The thermal tests were performed using a thermode probe (Medoc). Cold and warm detection thresholds were measured first, then cold pain and heat pain thresholds were determined. The mean threshold temperature of 3 consecutive measurements was calculated. All thresholds were obtained with ramped stimuli (1°C/sec) that were terminated when the subject pressed a button. For thermal detection thresholds the ramp back to baseline was 1°C/sec, while for thermal pain thresholds this ramp was chosen at maximum device capacity resulting in approximately a nominal 5°C/sec.
The mechanical detection threshold was measured with a standardised set of modified von Frey nylons that exerted forces upon bending between 0.25 and 512 mN graded by a factor of 2 (1 to 2 seconds contact time). […]

COc1cc2ccc(O[C@@H]3C[C@H]4CC[C@@H](C3)N4)cc2oc1=O [IP2015, exo-7-[(8-azabicyclo[3.2.1]octan-3-yl)oxy]-3-methoxy-chromen-2-one]
area of brush-evoked allodynia compared to placebo (5 mg IP2015, 120 min after capsaicin injection, P=0.049): significantly lowered | Pain Score of Brush-evoked Allodynia Using an NRS, Adjusted Mean (MMRM) (5 mg IP2015): 1.8 | Subjective Rating of Pain, Adjusted Mean (MMRM) (5 mg IP2015 single oral dose): 15.6 mm | adjusted mean pain score of hyperalgesia compared to placebo (5 mg and 10 mg IP2015, 300 mg pregabalin, all post-capsaicin injection timepoints): lower | average decrease in hyperalgesic area across all timepoints compared to placebo (10 mg IP2015): 4 cm^2 | decrease of subjective rating of pain compared to placebo (10 mg IP2015, 15 min post capsaicin): 7.2 mm | decrease of subjective rating of pain compared to placebo (10 mg IP2015, 30 min post capsaicin): 8.3 mm | decrease of subjective rating of pain compared to placebo (10 mg IP2015, 60 min post capsaicin): 7.5 mm | Pain Score of Brush-evoked Allodynia Using an NRS, Adjusted Mean (MMRM) (10 mg IP2015): 1.6 | overall increase in warm detection threshold between test and control areas (QST) (10 mg IP2015, p = 0.013, post-hoc analysis): significant | pressure pain threshold (QST) (10 mg IP2015, post-hoc analysis): best effects | Subjective Rating of Pain, Adjusted Mean (MMRM) (10 mg IP2015 single oral dose): 11.7 mm | thermal sensory limen warm test (QST) (IP2015 versus pregabalin, post-hoc analysis): improved effects compared to pregabalin
